Measured values taken from paper PMC3558932 (Chemistry & biology, 2013).

Experiments:
Rv0036c = Rv0036c (Mycobacterium tuberculosis, UniProt P9WM91)
Rv0831c = Rv0831c (Mycobacterium tuberculosis, UniProt O53842)
Rv0941c = Rv0941c (Mycobacterium tuberculosis, UniProt P71568); conditions: 20 uM probe, lysate in PBS, 37 °C, 1 h; covalent
Rv0282 = Rv0282 (Mycobacterium tuberculosis, UniProt P9WPI3); conditions: 20 uM probe, lysate in PBS, 37 °C, 1 h; covalent
Sequence of Rv0282 (P9WPI3 whole entry, looked up): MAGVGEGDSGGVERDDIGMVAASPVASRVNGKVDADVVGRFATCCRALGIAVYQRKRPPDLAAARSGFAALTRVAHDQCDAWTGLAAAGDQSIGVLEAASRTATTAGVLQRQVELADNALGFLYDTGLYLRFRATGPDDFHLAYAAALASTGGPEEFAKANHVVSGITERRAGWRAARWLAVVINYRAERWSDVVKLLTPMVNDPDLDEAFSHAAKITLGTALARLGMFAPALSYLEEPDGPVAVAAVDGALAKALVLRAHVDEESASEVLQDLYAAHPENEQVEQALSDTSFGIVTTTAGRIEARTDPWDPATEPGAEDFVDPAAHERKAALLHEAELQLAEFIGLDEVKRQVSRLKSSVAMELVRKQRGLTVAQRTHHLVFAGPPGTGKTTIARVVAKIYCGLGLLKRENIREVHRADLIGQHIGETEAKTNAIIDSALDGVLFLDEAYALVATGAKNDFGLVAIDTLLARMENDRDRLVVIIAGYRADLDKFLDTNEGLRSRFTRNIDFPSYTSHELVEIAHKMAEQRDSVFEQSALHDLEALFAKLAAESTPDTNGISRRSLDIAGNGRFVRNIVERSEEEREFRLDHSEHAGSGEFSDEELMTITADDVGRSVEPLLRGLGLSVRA

Sequence of Rv0036c (P9WM91 whole entry): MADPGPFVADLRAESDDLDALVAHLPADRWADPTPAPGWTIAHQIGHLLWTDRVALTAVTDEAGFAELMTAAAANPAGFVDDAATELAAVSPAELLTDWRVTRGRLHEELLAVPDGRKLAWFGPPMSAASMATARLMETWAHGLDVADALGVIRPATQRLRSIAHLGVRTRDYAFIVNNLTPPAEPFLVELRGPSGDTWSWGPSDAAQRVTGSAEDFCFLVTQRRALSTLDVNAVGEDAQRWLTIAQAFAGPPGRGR

Row | Compound | competition with ATP-ABP labelling, gel fluorescence (Rv0036c) | competition with ATP-ABP labelling, gel fluorescence (Rv0831c) | fold enrichment over control (Rv0941c) [fold] | fold enrichment over negative control (Rv0282) [fold]
1 | Nc1ncnc2c1ncn2[C@@H]1O[C@H](COP(=O)(O)OP(=O)(O)OP(=O)(O)O)[C@@H](O)[C@H]1O [ATP] | ATP and ATPγS competed with probe binding | ATP and ATPγS competed with probe binding |  | 
2 | Nc1ncnc2c1ncn2[C@@H]1O[C@H](COP(=O)(O)OP(=O)(O)OP(O)(O)=S)[C@@H](O)[C@H]1O [ATPγS] | ATP and ATPγS competed with probe binding | ATP and ATPγS competed with probe binding |  | 
3 | ATP-ABP |  |  | 15 | 4
